The text below walks through data of patent US20230256094A1, “CANCER RADIOSENSITIZATION BY IN SITU FORMATION OF GOLD NANOPARTICLES AND/OR GOLD NANOCLUSTERS” (BOARD OF REGENTS, THE UNIVERSITY OF TEXAS SYSTEM, priority 2020, published 2023).

In series [1] the test system is PANC1 cells. Description: Optimization of conditions for intracellular synthesis of fluorescent GNCs. In kind it is cell-based, human. The procedure:
2.3. Optimization of conditions for intracellular synthesis of GNCs. We determined optimal conditions for intracellular synthesis of fluorescent GNCs by PANC1 cells through variations in (1) how long cells condition media before addition of Au^3+ ions (FIG. 11), (2) the concentration of FBS within the media (FIG. 10), (3) concentration of added Au^3+ ions (FIGS. 13), and (4) incubation time (FIG. 12). We used the following standard conditions: 24 hr cell conditioning time, 10% FBS, 1.00 mM Au^3+, and 24 hr Au^3+ treatment duration. […] We observed significant formation of GNCs at Au^3+ concentrations between 0.20-0.75 mM, with fluorescence reduced at concentrations greater than 1.00 mM, possibly, due to formation of larger non-fluorescent gold nanoparticles (GNPs). We observed fluorescence as early as 30 minutes after addition of gold atoms with a significant increase up to 4 hours.

Another series concerns NIH3T3 cells. Description: Confocal fluorescence imaging of intracellular GNC formation. The class given is cell-based, mouse. The conditions noted are these: 1 mM in cell culture media, 24 hours; 561 nm excitation, 610 nm emission. The procedure:
FIG. 3A presents fluorescence images of control NIH3T3 cells (left) and cells treated with Au^3+ (right). Both control and treated cells generated fluorescence with nuclear staining by Hoechst 33342. Fluorescent signal in the treated cells was associated with intracellular formation of gold nanoclusters (GNCs). Scale bars 20 μm.
(§1) Our initial evaluation of radiosensitization via intracellular GNP formation was performed with 3T3 mouse fibroblast cells. […] Radiosensitization with intracellular GNC formation (i.e., delivery of Au^3+) was compared with pre-fabricated albumin-coated GNCs (Albumin-GNC) prepared according to work by Xie^46 and control cells without treatment via MTS assay (FIG. 3B).

Series [2] deals with 8505C thyroid cancer and Nthy-Ori-3-1 normal thyroid cells. Description: MTT assay of cell viability, thyroid cells. In kind it is cell-based. The conditions noted are these: 24 hour treatment, all concentrations.
A further series concerns Mia-PaCa-2 cells. Description: Fluorescence of in situ synthesis vs uptake of prefabricated GNCs. In kind it is cell-based, human. Particulars: 1.00 mM, 24 hr (FIG. 8B). The source says:
(§2) Hoechst nuclear stain is the only imaging source in the untreated column and the primary imaging source in the albumin-GNC column and the non-cancer Au^3+ panel. Cells are live during imaging. Scale bars are 10 μm.
(§3) FIG. 8B quantifies GNC channel pixel intensity of the samples in each of the rows of FIG. 8A.
(§4) 2.2. Comparisons of efficiency of the GNC in situ synthesis by cancer and normal cells. We compared GNC biosynthesis between normal (HPDE) and cancerous (Mia-PaCa-2 and PANC1) pancreatic cells using fluorescent confocal microscopy (FIG. 8A). In addition, we compared the efficiency of the intracellular synthesis with extracellular uptake of prefabricated albumin coated GNCs (FIG. 8A). […] Further, there was 12.20- and 7.69-times greater fluorescence due to in situ synthesis relative to cellular uptake of prefabricated GNCs in PANC1 and Mia-PaCa-2 cells, respectively (FIG. 8B).

In series [3] the test system is PANC1 cells. The description is as above. The class given is cell-based, human. The conditions noted are these: 1.00 mM, 24 hr (FIG. 8B).
Description: as §2, §3, §4

In series [4] the test system is PANC1 cells. Description: MTS viability assay. The class given is cell-based. The procedure: 2.4. Characterize cytotoxicity of gold atom treatment. An MTS viability assay was used with 0-2.0 mM Au^3+ dose range. […] MTS assay was not usable at concentrations >0.75 mM Au^3+ due to intracellular formation of larger GNPs and their absorbance interfering with the MTS results. Therefore, at higher Au^3+ we switched to AO/PI live-dead staining (FIG. 15) and JC-1 mitochondrial depolarization assays (FIG. 19). JC-1 assay indicated cell viability ˜80% for concentrations between 0.20-1.50 mM Au^3+.

Series [5] concerns 3T3 mouse fibroblast cells. Description: MTS assay of radiosensitization after X-ray irradiation. The class given is cell-based. The conditions noted are these: 0 Gy. The procedure: as §1
3T3 cells were first incubated with either 1 mM of sodium chloroaurate or albumin-GNCs (0.1 mM Au^0)in cell culture media for 10 hours. Then, the cells including the nontreated control were irradiated with X-rays at dosages of 0, 4 and 6 Gy in the X-ray X-RAD 225 CX irradiator system (Precision).
In our future studies we will use a standard clonogenic survival assay for quantitation of the radiosensitization effect.
Background: Formazan colour is commonly taken as a measure of viable cells.

The subject of series [6] is cancerous (Mia-PaCa-2 and PANC1) vs normal (HPDE) pancreatic cells. Description: Fluorescent confocal microscopy of GNC biosynthesis, cancerous vs normal cells. The class given is cell-based. The conditions noted are these: 1.00 mM, 24 hr (FIG. 8B).
Description: as §2, §3, §4

Series [7] relates to pancreatic noncancerous cells (HPDE). Description: Confocal fluorescence imaging of in situ GNC synthesis. The class given is cell-based. The conditions noted are these: 1 mM, 24 hours, 561 nm excitation, 610 nm emission. On the procedure:
FIG. 4 presents fluorescence confocal images of non-cancerous (HPDE) and cancerous (MIAPaCa2) pancreatic cells treated with either 1 mM of Au^3+ gold ions or premade albumin-GNCs at 1 mM Au^0 for 24 hours. (From left to right) Cells: untreated; treated with albumin-GNCs; treated with Au^3+ gold ions. […] The strong red fluorescence in cancer cells indicated intracellular synthesis of GNCs from gold ions. Scale bars are 25 μm.
We compared in situ synthesis of GNCs by pancreatic cancer cells (MIAPACA2) and pancreatic noncancerous cells (HPDE) (FIG. 4). Confocal fluorescence images were obtained using a Leica TCS SP8 confocal microscope with 561 nm excitation and 610 nm emission optimized for detection of GNCs.

Another series has as its system PANC1 pancreatic cancer. Description: NADP(H) assay after irradiation. In kind it is cell-based, human. Particulars: 24 hr post-irradiation. The procedure: FIG. 23 reports on a mechanistic study of radiosensitization quantifying total NADP through NADP assay measured at 0, 1, and 24 hours, resulting from 24 hour, 0.20 mM Au^3+ treatments (right four bars) compared against non-treated (left four bars) combined with either 0 Gy or 8 Gy x-ray irradiation. Treatments are in full cell media to PANC1 pancreatic cancer.
FIG. 24 reports on a mechanistic study of radiosensitization quantifying the ratio of NADP^+/NADPH through NADP assay measured at 0, 1, and 24 hours, resulting from 24 hour, 0.20 mM Au^3+ treatments (right) compared against non-treated (left) combined with either 0 Gy or 8 Gy x-ray irradiation. Treatments are in full cell media to PANC1 pancreatic cancer.
Further, we characterized the mechanisms of radiosensitization through (i) quantification of double stranded DNA breaks via y-H2AX Foci (FIG. 21), (ii) mitochondrial polarization via JC-1 assay (FIG. 22), (iii) NADP total (FIG. 23) and NADP:NADPH ratio (FIG. 24) via NADP(H) assay, and (iv) peroxidation production via TBARS assay (FIG. 25).

Each structure is given as a SMILES string.

For `[Au+3].[Cl-].[Cl-].[Cl-].[Cl-].[H+]` [Au^3+, chloroauric acid], in the series with PANC1 cells [1] (1.00 mM, 10% FBS), the “earliest time at which fluorescence was observed after addition” value stood at 30 min and the “time up to which fluorescence increased significantly” value is listed as “up to 4 hours”. In the series with PANC1 cells [1] (24 hr treatment, 10% FBS), the “Au^3+ concentrations at which fluorescence is reduced” value is given as “greater than 1.00 mM” and the “Au^3+ concentrations with significant formation of GNCs” value is 0.20 to 0.75 mM. For the same compound, in the series with PANC1 cells [1] (media conditioning up to 72-hr, FBS 0-10% (v/v)), the “change of GNC synthesis with duration of media conditioning or FBS concentration” value is on record as “No significant changes”. In addition, the “intracellular formation of GNCs (confocal fluorescence)” value with NIH3T3 cells was “uniform formation of GNCs”. The “viability of cancer cells compared with normal cells (MTT)” value in [2] is listed as “significantly lower viability of cancer cells than normal cells”. Besides, the “greater fluorescence due to in situ synthesis relative to cellular uptake of prefabricated GNCs” value in the series with Mia-PaCa-2 cells is on record as 7.69 times. For the same compound, in the series with PANC1 cells [3], the “greater fluorescence due to in situ synthesis relative to cellular uptake of prefabricated GNCs” value amounted to 12.20 times. Besides, the “impact on viability (MTS)” value in the series with PANC1 cells [4] (0.0-0.20 mM) is listed as “no impacts on viability”. Moreover, in the series with PANC1 cells [4] (0.75 mM), the “cell viability (MTS)” value is recorded as ~81%. The “cell viability / cytotoxicity, treated vs untreated cells” value in series [5] is “no difference in cell viability”. For the same compound, the “cell viability / cytotoxicity, treated vs untreated cells” value in [5] (listed as chloroauric acid) is “not cytotoxic”. Moreover, the “greater fluorescence due to GNC biomineralization in cancerous cells than in non-cancerous HPDE” value in series [6] is reported as ~2 fold. In addition, the “GNC fluorescence / GNC formation” value in series [7] is “only sparsely seen”. Moreover, in the series on PANC1 pancreatic cancer, the “NADP total lower than for non-treated cells” value is reported as ~43% and the “NADP:NADPH ratio larger than for non-treated cells” value stood at 181%.
